Assays:
human μ-calpain = biological target: T1, human μ-calpain (Homo sapiens, UniProt P07384); test: Enzymatic Calpain Inhibition Assay; type: biochemical; details: read-out: Calp I IC50
T1 construct: purchased Calbiochem
T1 sequence (P07384 1-714): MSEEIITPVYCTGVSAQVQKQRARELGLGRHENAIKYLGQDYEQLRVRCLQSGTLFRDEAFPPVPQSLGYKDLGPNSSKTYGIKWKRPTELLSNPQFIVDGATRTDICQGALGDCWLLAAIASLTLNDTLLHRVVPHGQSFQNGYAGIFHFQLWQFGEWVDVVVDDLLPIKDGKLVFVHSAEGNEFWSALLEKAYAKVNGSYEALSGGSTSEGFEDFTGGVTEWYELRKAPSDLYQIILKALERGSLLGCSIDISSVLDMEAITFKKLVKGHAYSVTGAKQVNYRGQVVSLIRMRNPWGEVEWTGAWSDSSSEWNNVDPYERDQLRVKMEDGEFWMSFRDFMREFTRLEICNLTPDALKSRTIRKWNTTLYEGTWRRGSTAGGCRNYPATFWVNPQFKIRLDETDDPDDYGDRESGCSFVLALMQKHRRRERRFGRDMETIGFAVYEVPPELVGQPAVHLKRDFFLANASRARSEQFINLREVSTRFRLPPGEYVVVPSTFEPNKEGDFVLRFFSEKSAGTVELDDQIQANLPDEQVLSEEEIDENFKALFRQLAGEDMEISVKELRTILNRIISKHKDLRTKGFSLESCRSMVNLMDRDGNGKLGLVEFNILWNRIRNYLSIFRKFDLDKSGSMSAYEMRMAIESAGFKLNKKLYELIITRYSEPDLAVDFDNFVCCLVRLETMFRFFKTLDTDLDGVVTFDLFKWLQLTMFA
T1 sequence (P04632 1-268 partner): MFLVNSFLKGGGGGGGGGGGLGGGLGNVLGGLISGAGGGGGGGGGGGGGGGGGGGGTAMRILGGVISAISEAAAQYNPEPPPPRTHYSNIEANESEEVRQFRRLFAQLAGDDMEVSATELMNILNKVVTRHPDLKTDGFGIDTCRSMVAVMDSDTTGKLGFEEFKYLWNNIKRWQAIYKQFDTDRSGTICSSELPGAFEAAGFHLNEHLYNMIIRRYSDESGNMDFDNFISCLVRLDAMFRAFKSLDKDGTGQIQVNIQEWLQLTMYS
Description: The Ki value was also determined in some cases. These criteria were used to measure the inhibitory effect of the compounds (I) on calpain I, calpain II and cathepsin B.
The inhibitory properties of calpain inhibitors are tested in 100 μl of a buffer containing 100 mM imidazole pH 7.5, 5 mM L-Cystein-HCl, 5 mM CaCl2, 250 μM of the calpain fluorogenic substrate Suc-Leu-Tyr-AMC (Sigma) (Sasaki et al., J. Biol. Chem., 1984, 259, 12489-12949) dissolved in 2.5 μl DMSO and 0.5 μg of human μ-calpain (Calbiochem). The inhibitors dissolved in 1 μl DMSO are added to the reaction buffer. The fluorescence of the cleavage product 7-amino-4-methylcoumarin (AMC) is followed in a SPECTRAmax GEMINI XS (Molecular Device) fluorimeter at λex=360 nm and λem=440 nm at 30° C. during 30 min at intervals of 30 sec in 96-well plates (Greiner). The initial reaction velocity at different inhibitor concentrations is plotted against the inhibitor concentration and the IC50 values determined graphically.

[1] = test system: cellular calpains in C2C12 myoblasts; test: Calpain Inhibition Assay in C2C12 Myoblasts; type: cell-based; details: read-out: Calp I IC50 Myoblast
Description: This assay is aimed at monitoring the ability of the substance to inhibit cellular calpains. C2C12 myoblasts are grown in 96-well plates in growth medium (DMEM, 20% foetal calf serum) until they reach confluency. The growth medium is then replaced by fusion medium (DMEM, 5% horse serum). 24 hours later the fusion medium is replaced by fusion medium containing the test substances dissolved in 1 μl DMSO. After 2 hours of incubation at 37° C. the cells are loaded with the calpain fluorogenic substrate Suc-Leu-Tyr-AMC at 400 μM in 50 μl of a reaction buffer containing 135 mM NaCl; 5 mM KCl; 4 mM CaCl2; 1 mM MgCl2; 10 mM Glucose; 10 mM HEPES pH 7.25 for 20 min at room temperature. The calcium influx, necessary to activate the cellular calpains, is evoked by the addition of 50 μl reaction buffer containing 20 μM of the calcium ionophore Br-A-23187 (Molecular Probes). The fluorescence of the cleavage product AMC is measured as described above during 60 min at 37° C. at intervals of 1 min. The IC50 values are determined as described above. Comparison of the IC50 determined in the enzymatic calpain inhibition assay to the IC50 determined in the C2C12 myoblasts calpain inhibiton assay, allows to evaluate the cellular uptake or the membrane permeability of the substance.

20S Proteasome = biological target: T2, 20S Proteasome (Oryctolagus cuniculus, UniProt G1T4Q9); test: 20S Proteasome Assay; type: biochemical, Rabbit; details: read-out: 20S Prot IC50
T2 sequence (G1T4Q9 60-263): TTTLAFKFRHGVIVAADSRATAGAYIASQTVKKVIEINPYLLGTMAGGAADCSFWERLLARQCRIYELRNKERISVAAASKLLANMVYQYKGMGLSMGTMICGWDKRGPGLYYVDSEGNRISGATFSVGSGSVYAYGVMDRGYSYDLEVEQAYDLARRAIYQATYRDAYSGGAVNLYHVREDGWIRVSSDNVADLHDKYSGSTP
Description: 25 μl of a reaction buffer containing 400 μM of the fluorogenic substrate Suc-Leu-Leu-Val-Tyr-AMC (Bachem) are dispensed per well of a white microtiter plate. Test compounds dissolved in 0.5 μl DMSO are added. To start the reaction; 25 μl of reaction buffer containing 35 ng of enzyme (20S Proteasome, Rabbit, Calbiochem) are added. The increase in fluorescence (excitation at 360 nm; emission at 440 nm) is measured over 30 min at 30° C. at 30″. The IC50's are then determined from the slopes.

[2] = test system: experimental muscular dystrophy in hamster; details: Journal of Pharmacobiodynamics, 1987, 10, 678; cited from earlier work

Compound: CCNC(=O)C(=O)C(Cc1ccc(Cl)cc1)NC(=O)C(NC(=O)C(Cc1ccccc1)NC(=O)CCc1cccs1)C(C)C (centres unmarked) [Example 3]
- IC50 (human μ-calpain): 24 nM
- IC50 [1]: 20 nM
- IC50 (20S Proteasome): 42 nM
- melting point: 244 to 246 °C

Compound: CCOC(=O)[C@H]1O[C@@H]1C(=O)N[C@@H](CC(C)C)C(=O)NCCC(C)C [Example E-64-d]
- life-prolonging effect [2]: life-prolonging effect

— US20080058324A1, “Alpha-Keto Carbonyl Calpain Inhibitors” (SANTHERA PHARMACEUTICALS (SCHWEIZ) AG, priority 2004, published 2008)
